For test [1], the system named is HEK293 cells. Kind of test: mWasabi fluorescence assay (protein expression of capped mRNA) in HEK293 cells. It is filed as cell-based. The settings on record: mWasabi encoding mRNA capped with the cap analog, 24 hours post transfection, 12.5 ng mRNA per well. The method, then:
(§1) Wasabi and FLuc mRNAs capped with cap analog ARCA, cap analog A-1, cap analog A-2, cap analog 3′OMe, or cap analog A-Control (see Table 2) were prepared as described in International Patent Publication Nos. WO2017053297 and WO2023147352 which are incorporated herein by reference in their entirety.
(§2) The IVT template was used to prepare mWasabi encoding mRNA (970 nucleotides) with cap analogs A-control, 3′OMe, A-1 or A-2 by in-vitro transcription. The mRNAs were purified prior to use in assays described below. Protein expression was measured by Allele Biotechnology in cell-based assays.
(§3) mWasabi Fluorescence Assay:
(§4) The day before transfection: cells were seeded as follows: • HEK293 cells: 6.25×10^4/cm^2 • HeLa cells: 3.125×10^4/cm^2 • The cells were dissociated with TrypLE • HEK293 cells were seeded in 96 well plates coated with Poly-D-Lysine (50 μL at 100 μg/mL per well). • HeLa cells were seeded in 96 well plates (no coating required). • The cells were seeded in 100 μL of growth media (Growth Media: DMEM+10% FBS supplemented with GlutaMAX and MEM Non-Essential Amino Acids).
(§5) The day of transfection: Opti-MEM and MessengerMax Transfection Reagent were allowed to reach room temperature. Two tubes were set up for each mRNA (i.e., for each cap analog). […]
(§6) mWasabi fluorescent expression was quantified using Cytation 10 after 24 hours.

Test [2] deals with HeLa cells. Put plainly: mWasabi fluorescence assay (protein expression of capped mRNA) in HeLa cells. The settings on record: mWasabi encoding mRNA capped with the cap analog, 24 hours post transfection, 12.5 ng mRNA per well. The class given is cell-based. The method, then:
as §1, §2, §3, §4, §5, §6

For the substance “^N7-(4-chlorobenzyl)G3′OMeppp^m6A2′OMepG [Compound A-1]”, the “fluorescence intensity (i.e., protein expression levels)” value is “comparable to that of mRNA capped with Cap 3′OMe or mRNA capped with A-control, and much higher than that of mRNA capped with ARCA cap” in test [1]; “comparable to that of mRNA capped with Cap 3′OMe or mRNA capped with A-control, and much higher than that of mRNA capped with ARCA cap” in test [2].

In the case of “^m7, N2-butylG3′OMeppp^m6A2′OMepG [Compound A-2]”, the “fluorescence intensity (i.e., protein expression levels)” value in test [1] is “comparable to that of mRNA capped with Cap 3′OMe or mRNA capped with A-control, and much higher than that of mRNA capped with ARCA cap”; in test [2], “comparable to that of mRNA capped with Cap 3′OMe or mRNA capped with A-control, and much higher than that of mRNA capped with ARCA cap”.

The record behind these values is patent US20250388620A1, “EFFICIENT METHOD FOR MAKING HIGHLY PURIFIED 5’- CAPPED OLIGONUCLEOTIDES” (TriLink BioTechnologies, LLC, priority 2022, published 2025).
